The source made the active and inactive calls. The calls are words filed in the database; no cut-off is given here.
Tests used:
[1] = target: Glutamate receptor 4 (Rattus norvegicus, UniProt P19493); assay: biochemical
[2] = target: Glutamate receptor 2 (Rattus norvegicus, UniProt P19491); assay: biochemical
[3] = target: Glutamate receptor 3 (Rattus norvegicus, UniProt P19492); assay: biochemical
[4] = target: Glutamate NMDA receptor
[5] = target: T1, Glutamate receptor 4 (Homo sapiens, UniProt P48058)
[6] = target: Glutamate receptor ionotropic, AMPA (Rattus norvegicus, UniProt P19490+P19491+P19492+P19493)
[7] = target: T2, Glutamate receptor 1 (Homo sapiens, UniProt P42261)
T2 sequence (P42261 whole entry): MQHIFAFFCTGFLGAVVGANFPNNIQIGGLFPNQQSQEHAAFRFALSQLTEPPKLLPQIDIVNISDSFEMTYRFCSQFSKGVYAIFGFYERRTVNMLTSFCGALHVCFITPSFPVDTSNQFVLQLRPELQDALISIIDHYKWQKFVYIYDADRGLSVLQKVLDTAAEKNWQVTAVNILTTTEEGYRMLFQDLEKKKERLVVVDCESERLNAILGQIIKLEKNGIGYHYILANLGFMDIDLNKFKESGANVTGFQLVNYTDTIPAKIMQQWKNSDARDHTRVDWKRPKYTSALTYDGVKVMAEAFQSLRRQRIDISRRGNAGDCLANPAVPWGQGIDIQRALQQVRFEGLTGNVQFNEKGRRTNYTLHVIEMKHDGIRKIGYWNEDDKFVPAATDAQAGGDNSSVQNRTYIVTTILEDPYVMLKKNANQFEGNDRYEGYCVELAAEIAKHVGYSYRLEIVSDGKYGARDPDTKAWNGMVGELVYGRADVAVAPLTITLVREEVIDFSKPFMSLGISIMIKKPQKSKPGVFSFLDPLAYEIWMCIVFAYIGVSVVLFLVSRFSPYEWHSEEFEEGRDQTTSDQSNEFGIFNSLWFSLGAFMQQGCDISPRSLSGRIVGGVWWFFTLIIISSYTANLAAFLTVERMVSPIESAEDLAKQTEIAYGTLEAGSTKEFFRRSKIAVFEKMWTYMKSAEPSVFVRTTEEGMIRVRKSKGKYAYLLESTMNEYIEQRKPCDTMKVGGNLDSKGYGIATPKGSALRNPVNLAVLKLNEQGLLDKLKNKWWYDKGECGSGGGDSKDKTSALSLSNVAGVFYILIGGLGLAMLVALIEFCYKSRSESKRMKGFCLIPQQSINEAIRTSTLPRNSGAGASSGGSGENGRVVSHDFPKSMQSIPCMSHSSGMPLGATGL

[8] = target: Glutamate receptor 1 (Rattus norvegicus, UniProt P19490); assay: biochemical
[9] = target: T3, Glutamate receptor 3 (Homo sapiens, UniProt P42263)
T3 sequence (P42263 whole entry): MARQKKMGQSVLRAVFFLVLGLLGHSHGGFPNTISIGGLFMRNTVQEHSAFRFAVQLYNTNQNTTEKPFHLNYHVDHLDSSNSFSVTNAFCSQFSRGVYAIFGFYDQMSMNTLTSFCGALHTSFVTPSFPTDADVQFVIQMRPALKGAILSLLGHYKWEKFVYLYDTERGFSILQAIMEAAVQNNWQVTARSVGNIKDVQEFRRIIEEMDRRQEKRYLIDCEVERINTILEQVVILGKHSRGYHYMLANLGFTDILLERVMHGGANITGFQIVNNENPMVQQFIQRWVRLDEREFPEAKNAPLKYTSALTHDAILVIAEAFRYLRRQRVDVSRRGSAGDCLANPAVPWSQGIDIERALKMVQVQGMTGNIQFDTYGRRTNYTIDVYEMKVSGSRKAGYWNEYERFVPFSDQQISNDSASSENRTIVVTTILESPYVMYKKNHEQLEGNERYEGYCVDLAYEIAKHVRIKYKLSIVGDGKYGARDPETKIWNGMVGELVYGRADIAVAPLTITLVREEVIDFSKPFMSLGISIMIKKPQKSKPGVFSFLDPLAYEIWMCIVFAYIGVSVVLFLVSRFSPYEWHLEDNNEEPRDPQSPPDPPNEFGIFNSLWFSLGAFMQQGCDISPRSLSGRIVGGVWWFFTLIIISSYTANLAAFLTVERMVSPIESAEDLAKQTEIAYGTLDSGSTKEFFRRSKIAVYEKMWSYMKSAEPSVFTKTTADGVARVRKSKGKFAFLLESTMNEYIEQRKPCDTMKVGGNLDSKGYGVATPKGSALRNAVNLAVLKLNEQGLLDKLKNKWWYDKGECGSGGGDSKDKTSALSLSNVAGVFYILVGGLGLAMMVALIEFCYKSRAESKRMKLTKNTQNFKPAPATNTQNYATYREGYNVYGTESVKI

[10] = target: Glutamate receptor 2 (Homo sapiens, UniProt P42262)
Sequence of Glutamate receptor 2 (Homo sapiens, UniProt P42262) (P42262 whole entry): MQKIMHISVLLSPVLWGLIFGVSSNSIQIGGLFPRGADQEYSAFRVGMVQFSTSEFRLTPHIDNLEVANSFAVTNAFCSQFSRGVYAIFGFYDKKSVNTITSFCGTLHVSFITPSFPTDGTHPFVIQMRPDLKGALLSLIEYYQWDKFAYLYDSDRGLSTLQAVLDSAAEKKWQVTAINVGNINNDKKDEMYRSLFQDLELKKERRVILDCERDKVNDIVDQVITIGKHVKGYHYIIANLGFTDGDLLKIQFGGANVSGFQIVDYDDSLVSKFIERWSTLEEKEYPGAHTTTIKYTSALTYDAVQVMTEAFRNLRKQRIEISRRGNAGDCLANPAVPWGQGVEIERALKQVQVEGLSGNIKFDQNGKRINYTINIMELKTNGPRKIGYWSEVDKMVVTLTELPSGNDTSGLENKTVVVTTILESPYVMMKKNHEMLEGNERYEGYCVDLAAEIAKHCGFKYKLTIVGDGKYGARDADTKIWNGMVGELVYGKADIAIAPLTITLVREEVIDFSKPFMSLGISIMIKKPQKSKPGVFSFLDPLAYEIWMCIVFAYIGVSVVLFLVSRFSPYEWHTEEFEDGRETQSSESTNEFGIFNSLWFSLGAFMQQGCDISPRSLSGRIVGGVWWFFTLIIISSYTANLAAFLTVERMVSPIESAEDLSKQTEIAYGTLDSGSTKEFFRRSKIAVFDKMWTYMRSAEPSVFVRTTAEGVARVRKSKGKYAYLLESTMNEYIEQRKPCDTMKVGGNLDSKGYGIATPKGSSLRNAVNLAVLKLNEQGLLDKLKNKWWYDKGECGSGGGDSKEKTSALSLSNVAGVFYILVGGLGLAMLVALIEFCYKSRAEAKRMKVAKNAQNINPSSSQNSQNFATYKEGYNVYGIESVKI

[11] = target: T4, Ionotropic glutamate receptor NMDA 1/2D (Rattus norvegicus) (UniProt P35439+Q62645); assay: Agonist activity at recombinant rat GluN1a/GluN2D expressed in Xenopus laevis oocytes at 100 uM at -40 mV holding potential by two-electrode voltage clamp electrophysiology method; format: cell-based
[12] = target: T5, Glutamate NMDA receptor; Grin1/Grin2a (Rattus norvegicus) (UniProt P35439+Q00959); assay: Agonist activity at recombinant rat GluN1a/GluN2A expressed in Xenopus laevis oocytes at 300 uM at -40 mV holding potential in presence of glycine by two-electrode voltage clamp electrophysiology method relative to glycine; format: cell-based
[13] = target: T4, Ionotropic glutamate receptor NMDA 1/2D (Rattus norvegicus); assay: Agonist activity at recombinant rat GluN1a/GluN2D expressed in Xenopus laevis oocytes at -40 mV holding potential in presence of glycine by two-electrode voltage clamp electrophysiology method relative to glycine; format: cell-based
[14] = target: T6, Glutamate NMDA receptor; Grin1/Grin2c (Rattus norvegicus) (UniProt P35439+Q00961); assay: Agonist activity at recombinant rat GluN1a/GluN2C expressed in Xenopus laevis oocytes at -40 mV holding potential in presence of glutamate by two-electrode voltage clamp electrophysiology method relative to control; format: cell-based
[15] = target: T7, Glutamate NMDA receptor; Grin1/Grin2b (Rattus norvegicus) (UniProt P35439+Q00960); assay: Agonist activity at recombinant rat GluN1a/GluN2B expressed in Xenopus laevis oocytes at 100 uM at -40 mV holding potential by two-electrode voltage clamp electrophysiology method; format: cell-based
[16] = target: T8, Ionotropic glutamate receptor NMDA 1/2D (Rattus norvegicus, UniProt P35439+Q62645)
[17] = target: T5, Glutamate NMDA receptor; Grin1/Grin2a (Rattus norvegicus); assay: Agonist activity at recombinant rat GluN1a/GluN2A expressed in Xenopus laevis oocytes at 300 uM at -40 mV holding potential in presence of glutamate by two-electrode voltage clamp electrophysiology method relative to control; format: cell-based
[18] = target: T6, Glutamate NMDA receptor; Grin1/Grin2c (Rattus norvegicus); assay: Agonist activity at recombinant rat GluN1a/GluN2C expressed in Xenopus laevis oocytes at 100 uM at -40 mV holding potential by two-electrode voltage clamp electrophysiology method; format: cell-based
[19] = target: T7, Glutamate NMDA receptor; Grin1/Grin2b (Rattus norvegicus); assay: Agonist activity at recombinant rat GluN1a/GluN2B expressed in Xenopus laevis oocytes at 300 uM at -40 mV holding potential in presence of glutamate by two-electrode voltage clamp electrophysiology method relative to control; format: cell-based
[20] = target: T4, Ionotropic glutamate receptor NMDA 1/2D (Rattus norvegicus); assay: Agonist activity at recombinant rat GluN1a/GluN2D expressed in Xenopus laevis oocytes at -40 mV holding potential in presence of glutamate by two-electrode voltage clamp electrophysiology method relative to control; format: cell-based
[21] = target: T8, Ionotropic glutamate receptor NMDA 1/2D; remark: listed apart in the source
[22] = target: T5, Glutamate NMDA receptor; Grin1/Grin2a (Rattus norvegicus); assay: Agonist activity at recombinant rat GluN1a/GluN2A expressed in Xenopus laevis oocytes at 100 uM at -40 mV holding potential by two-electrode voltage clamp electrophysiology method; format: cell-based
[23] = target: T1, Glutamate receptor 4; assay: Agonist activity at GluA4 receptor (unknown origin) expressed in HEK293 cells assessed induction of S-glutamate-induced calcium flux at 1000 uM measured after 90 secs in presence of cyclothiazide by Fluo4-AM dye-based fluorescence assay relative to S-glutamate; format: cell-based
[24] = target: T2, Glutamate receptor 1; assay: Agonist activity at GluA1 receptor (unknown origin) expressed in HEK293 cells assessed induction of S-glutamate-induced calcium flux at 300 uM measured after 90 secs in presence of cyclothiazide by Fluo4-AM dye-based fluorescence assay relative to S-glutamate; format: cell-based
[25] = target: T3, Glutamate receptor 3; assay: Agonist activity at GluA3 receptor (unknown origin) expressed in HEK293 cells assessed induction of S-glutamate-induced calcium flux at 300 uM measured after 90 secs in presence of cyclothiazide by Fluo4-AM dye-based fluorescence assay relative to S-glutamate; format: cell-based

Sequence of Glutamate receptor 2 (Rattus norvegicus, UniProt P19491) (P19491 whole entry): as the sequence (P42262 whole entry) above, with M191T, T291A, R764G, A852P counted along it
Sequence of Glutamate receptor 3 (Rattus norvegicus, UniProt P19492) (P19492 whole entry): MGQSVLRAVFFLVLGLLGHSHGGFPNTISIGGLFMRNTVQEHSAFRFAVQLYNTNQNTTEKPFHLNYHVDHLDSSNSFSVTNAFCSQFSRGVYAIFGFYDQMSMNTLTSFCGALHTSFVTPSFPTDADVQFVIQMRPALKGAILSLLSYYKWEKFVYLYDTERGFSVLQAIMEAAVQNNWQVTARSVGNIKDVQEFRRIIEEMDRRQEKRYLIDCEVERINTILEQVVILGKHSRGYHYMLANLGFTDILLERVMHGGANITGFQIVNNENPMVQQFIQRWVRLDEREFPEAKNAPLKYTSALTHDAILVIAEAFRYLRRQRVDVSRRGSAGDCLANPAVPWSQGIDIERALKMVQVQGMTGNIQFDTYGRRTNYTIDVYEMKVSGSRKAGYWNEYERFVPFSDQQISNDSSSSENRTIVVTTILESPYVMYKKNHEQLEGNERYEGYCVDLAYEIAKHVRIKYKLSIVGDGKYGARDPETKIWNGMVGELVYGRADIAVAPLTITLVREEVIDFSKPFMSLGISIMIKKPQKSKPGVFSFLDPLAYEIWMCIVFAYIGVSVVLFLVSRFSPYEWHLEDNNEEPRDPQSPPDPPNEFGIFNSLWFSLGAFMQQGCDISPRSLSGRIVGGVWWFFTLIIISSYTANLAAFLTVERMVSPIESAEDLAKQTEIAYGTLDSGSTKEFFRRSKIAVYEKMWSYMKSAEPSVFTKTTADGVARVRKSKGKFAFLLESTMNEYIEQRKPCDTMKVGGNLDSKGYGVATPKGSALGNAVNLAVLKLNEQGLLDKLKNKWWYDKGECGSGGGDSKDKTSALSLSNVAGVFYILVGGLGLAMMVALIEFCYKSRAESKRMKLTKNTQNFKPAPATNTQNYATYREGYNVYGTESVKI
Sequence of Glutamate receptor 4 (Rattus norvegicus, UniProt P19493) (P19493 whole entry): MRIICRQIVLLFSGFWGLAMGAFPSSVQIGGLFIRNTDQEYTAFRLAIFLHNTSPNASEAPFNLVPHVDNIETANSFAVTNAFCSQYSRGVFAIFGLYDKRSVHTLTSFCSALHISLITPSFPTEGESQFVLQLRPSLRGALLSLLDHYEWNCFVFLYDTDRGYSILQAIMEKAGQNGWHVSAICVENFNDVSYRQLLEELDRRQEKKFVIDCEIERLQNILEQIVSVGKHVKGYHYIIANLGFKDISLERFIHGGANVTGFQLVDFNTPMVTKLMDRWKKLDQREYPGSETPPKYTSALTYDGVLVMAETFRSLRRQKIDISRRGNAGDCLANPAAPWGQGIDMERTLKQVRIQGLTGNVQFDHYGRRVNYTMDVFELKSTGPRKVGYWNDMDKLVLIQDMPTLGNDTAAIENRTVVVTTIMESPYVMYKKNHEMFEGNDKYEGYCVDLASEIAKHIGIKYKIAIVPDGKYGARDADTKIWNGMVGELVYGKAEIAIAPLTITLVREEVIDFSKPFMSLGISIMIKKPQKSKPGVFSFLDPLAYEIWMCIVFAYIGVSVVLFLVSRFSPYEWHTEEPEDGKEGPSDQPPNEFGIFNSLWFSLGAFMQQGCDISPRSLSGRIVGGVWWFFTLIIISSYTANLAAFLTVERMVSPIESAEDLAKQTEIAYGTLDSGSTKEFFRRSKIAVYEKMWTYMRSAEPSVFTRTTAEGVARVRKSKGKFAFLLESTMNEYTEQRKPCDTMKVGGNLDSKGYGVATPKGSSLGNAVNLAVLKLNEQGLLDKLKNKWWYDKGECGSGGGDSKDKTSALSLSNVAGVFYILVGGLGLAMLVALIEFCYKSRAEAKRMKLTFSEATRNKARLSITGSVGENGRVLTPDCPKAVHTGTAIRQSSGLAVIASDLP

For Cn1nnc(-c2onc(O)c2CC(N)C(=O)O)n1 (centres undefined), the Ki [1] was 0.0027 µM, the Ki [2] was 0.0039 µM and the Ki [3] was 0.0022 µM.

In the case of CCn1nc(O)c(CC(N)C(=O)O)n1 (racemic), the Ki [4] is reported as greater than 100 µM, the EC50 [5] is reported as greater than 1000 µM and the IC50 [6] is reported as greater than 100 µM. For the same molecule, the Ki [1] was greater than 100 µM, the EC50 [7] was greater than 1000 µM and the Ki [8] was greater than 100 µM. It also gave a Ki [2] greater than 100 µM, a Ki [3] of 100 µM and an EC50 [9] greater than 1000 µM. It also gave an EC50 [10] greater than 1000 µM.

Cn1nc(O)c(C(N)C(=O)O)n1 (racemic) was tested, and the Activity [11] was “Active”, the Imax [12] was “inactive” and the IC50 [6] was greater than 100 µM. For the same molecule, the Imax [13] was 58%, the Imax [14] was 107% and the Activity [15] was “Active”. The EC50 [16] was 58 µM, the Imax [17] was 38% and the Activity [18] was “Active”. For the same molecule, the Imax [19] was 52%, the Imax [20] was 98% and the EC50 [21] was 35 µM. For the same molecule, the Activity [22] was “inactive”.

In the case of CCCn1nc(O)c(CC(N)C(=O)O)n1 (racemic), the Ki [4] is reported as greater than 100 µM, the IC50 [6] is reported as greater than 100 µM and the Ki [1] is reported as greater than 100 µM. It also gave an EC50 [7] greater than 1000 µM, a Ki [8] greater than 100 µM and a Ki [2] greater than 100 µM. For the same molecule, the Ki [3] was greater than 100 µM and the %max [23] was greater than 5%.

CN[C@H](CC(=O)O)C(=O)O [N-METHYL-D-ASPARTIC ACID (NMDA)] showed an IC50 [6] greater than 100 µM.

Molecule Cn1nnc(O)c1CC(N)C(=O)O (racemic) has a %max [24] greater than 5%, an EC50 [5] of 56.2 µM and a Ki [2] of 1.87 µM. It also gave a %max [25] greater than 5%.

For CCCn1nnc(O)c1CC(N)C(=O)O (racemic), the Ki [4] was greater than 100 µM, the EC50 [5] was 51 µM and the Ki [1] was 100 µM. It also gave a Ki [2] of 3.25 µM and a %max [25] greater than 5%.
